Experiment [1] has as its system C57BL/6J male mice, high-fat diet obesity model. Kind of experiment: Weight loss trial in a high-fat feeding obesity model. It counts as in vivo. The following applies: obese C57BL/6J mice; 50 or 100 mg/kg daily gavage; after 1 month of treatment. Here is the method: C57BL/6J male mice were fed with high-fat diet (60 kcal %) and low-fat diet (10 kcal %), respectively. After 16 weeks, the obesity model was successfully established (the body weight of high-fat diet was higher than 20% of the body weight of low-fat diet). They were divided into blank group, 12 high dose group (100 mg/kg), 12 low dose group (50 mg/kg) and orlistat group (50 mg/kg). The mice in the control group were given normal saline as the control, and the daily afternoon gavage of the drug for 4 weeks.

Experiment [2] relates to STZ+ high-fat fed type 2 diabetic Kunming mice. Kind of experiment: Hypoglycemic test in STZ+ high-fat fed diabetic mouse model. It counts as in vivo. The following applies: for blood glucose: gavage, 8 weeks (FIG. 1). Here is the method:
A total of 50 male Kunming mice were fed in a constant temperature of 25° C. with free access to food and water. After 5 days of adaptive feeding, the mice were divided into two groups for the first time. The first group (n=10) was the blank group (C) fed with normal diet, and the rest were the second group (n=40) fed with 60% high-fat diet to induce high-fat model and free access to water for 4 weeks. At the fifth week, the mice in the second group were injected with streptozotocin (STZ) to induce type 2 diabetes model. The total injection dose was 150 mg/kg, and the feeding conditions were unchanged. Type 2 diabetic mice with blood glucose levels higher than 11 mmol/L were divided into model group (M, n=10) and […]. Distilled water), metformin group (Meft, 225 mg/kg/d), compound 12 low-dose group (2A-L, 50 mg/kg/d), compound 12 high-dose group (2A-H, 100 mg/kg/d). The […] in group M were given distilled water by gavage every morning, and the dosage was Meft: 225 mg/kg. 2A-L: 50 mg/kg; 2A-H: 100 mg/kg. The mice were administrated by gavage at a dose of […] for 8 weeks, and the body weight and fasting blood glucose were measured regularly during the period.

Another experiment addresses MNK1 (Homo sapiens, UniProt Q9BUB5). Kind of experiment: MNK1 kinase inhibition assay (LANCE Ultra kinase activity assay, PerkinElmer). It counts as biochemical. The conditions noted are these: 450 μM ATP; for inhibition at 1 µM: inhibition rate at 1000 nM compound, 60 min, 25° C., read-out: Inhibitory activity(1 μM) MNK1. Here is the method: (§1) MNK1 and MNK2 kinase inhibition assays were performed using LANCE Ultra kinase activity assay developed by PerkinElmer. […] The test steps are as follows: At 25° C., 1.00 ng MNK1 or 0.05 ng MNK2 was prepared with different concentrations (10000, 1000, 100, 10, 1 nM) of the tested compound to form a total volume of 10 μL reaction mixture (MNK1: 12.5 nM CREB, 450 μM ATP, 2 mM DTT, 1× buffer; MNK2: 12.5 nM CREB, 100 μM ATP, 2 mM DTT, 1×buffer), and incubation for 60 min. The reaction was terminated by adding 5 μL EDTA/Detection buffer and 5 μL Eu-CREB/Detection buffer. The ratio of HTRF signals at 615 nm and 665 nm was detected after 60 min of incubation. The inhibition rate was calculated by measuring the compounds at 1000 nM.
(§2) Then five different concentrations (10000, 1000, 100, 10, 1 nM) of the tested compounds were measured, and the IC50 value was calculated according to the inhibition rate fitting curve.

The next experiment addresses MNK2 (Homo sapiens, UniProt Q9HBH9). Nature of the experiment: MNK2 kinase inhibition assay (LANCE Ultra kinase activity assay, PerkinElmer). It counts as biochemical. The conditions noted are these: 100 μM ATP; for inhibition at 1 µM: inhibition rate at 1000 nM compound, 60 min, 25° C., read-out: Inhibitory activity(1 μM) MNK2. Here is the method:
as §1, §2
In general terms: Time-resolved FRET reads energy transfer from a long-lived donor to a nearby acceptor.

For a further experiment, the system named is male db/db mice. Kind of experiment: Insulin tolerance and liver function improvement test in male db/db mouse model. It counts as in vivo. Here is the method: Six-week-old male db/db mice were randomly divided into 6 groups of 12 mice in each group: Model group (M, distilled water), metformin group (Meft, 200 mg/kg/d), lovastatin group (6 mg/kg), compound 12 low dose group (20 mg/kg/d), compound 12 middle dose group (40 mg/kg/d), compound 12 high dose group (80 mg/kg/d). They were raised in a constant temperature of 25° C. and fed and drinking freely. The mice were administrated by gavage at a dose of […] for 6 weeks, and the body weight and fasting blood glucose were measured regularly during the period.
Insulin tolerance test (ITT) was performed with […] (1.0 U/ml, 1.0 U/kg) and fasting for 4 hours in the morning. In the afternoon experiment, weight was weighed, blood glucose was measured before insulin injection, insulin injection volume was calculated according to body weight, and blood glucose was measured at 15 min, 30 min, 45 min, and 60 min. At the end of the experiment, each cage was supplemented with feed.

[3] abbreviates: compared with the model group (FIG. 3).
Setting [4] is: high-dose group (80 mg/kg/d) vs model group (FIG. 5).

Chain of MNK1 (Q9BUB5 whole entry): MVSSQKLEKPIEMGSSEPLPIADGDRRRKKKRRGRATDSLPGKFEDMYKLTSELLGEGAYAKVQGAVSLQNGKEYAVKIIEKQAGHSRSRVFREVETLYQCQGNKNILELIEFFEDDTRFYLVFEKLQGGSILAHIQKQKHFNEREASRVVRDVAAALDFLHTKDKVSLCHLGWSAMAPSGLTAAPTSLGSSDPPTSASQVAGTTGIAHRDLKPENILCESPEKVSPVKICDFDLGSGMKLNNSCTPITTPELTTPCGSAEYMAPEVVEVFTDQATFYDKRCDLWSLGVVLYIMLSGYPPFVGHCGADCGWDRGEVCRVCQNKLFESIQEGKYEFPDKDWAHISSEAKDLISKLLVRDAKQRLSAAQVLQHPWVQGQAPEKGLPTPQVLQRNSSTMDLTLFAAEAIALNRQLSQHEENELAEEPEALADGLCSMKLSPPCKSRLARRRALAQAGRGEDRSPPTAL
Chain of MNK2 (Q9HBH9 whole entry): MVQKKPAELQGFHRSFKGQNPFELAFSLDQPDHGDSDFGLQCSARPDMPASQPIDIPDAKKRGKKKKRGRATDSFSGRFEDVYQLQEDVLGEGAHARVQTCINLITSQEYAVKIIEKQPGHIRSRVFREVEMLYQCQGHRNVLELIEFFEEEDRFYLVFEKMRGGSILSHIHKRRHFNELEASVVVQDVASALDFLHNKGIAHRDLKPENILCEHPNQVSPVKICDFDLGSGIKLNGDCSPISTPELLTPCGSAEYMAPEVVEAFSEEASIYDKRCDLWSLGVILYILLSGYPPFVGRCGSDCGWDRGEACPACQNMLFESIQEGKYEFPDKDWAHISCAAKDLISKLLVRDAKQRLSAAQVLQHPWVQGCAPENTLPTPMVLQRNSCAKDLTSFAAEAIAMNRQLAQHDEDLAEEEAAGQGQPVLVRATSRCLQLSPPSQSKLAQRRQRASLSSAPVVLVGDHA

As for `CN(C)C1CCN(C(=O)c2ccc(-c3nn4c(-c5ccc(C#N)cc5)cnc4s3)cc2)CC1` [Compound 12, 4-(2-(4-(4-(dimethylamino)piperidine-1-carbonyl)phenyl)imidazo[2,1-b][1,3,4]thiadiazol-5-yl)benzonitrile], the body weight result in experiment [1] is recorded as “decreased significantly”. Besides, the glucose tolerance result in experiment [2] (50 and 100 mg/kg/d (FIG. 2)) is on record as “improved”. In addition, the “serum AST levels” value in experiment [2] (FIG. 3) is “significantly reduced”. In addition, the “serum creatinine (CREA)” value in experiment [2] (after administration, vs model group (FIG. 3)) is “decreased significantly”. Besides, in experiment [2] (setting [3]), the “serum TC” value is on record as “significantly decreased” and the “serum TG” value is on record as “significantly decreased”. Also, in experiment [2] (high dose group 100 mg/kg/d), the “hypoglycemic effect compared with positive control (metformin, 225 mg/kg)” value is reported as “better hypoglycemic effect than the positive control” and the blood glucose result is given as “significantly reduced”. Also, the “insulin sensitivity (insulin tolerance test)” value in experiment [2] (low and high dose groups vs model group, after intraperitoneal insulin (FIG. 2)) is listed as “restored insulin sensitivity”. In experiment [2] (low dose group 50 mg/kg/d), the “hypoglycemic effect compared with positive control (metformin, 225 mg/kg)” value is “equivalent to that of the positive control group” and the blood glucose entry is “significantly reduced”. Besides, the “reduction of TC compared with metformin” value in experiment [2] (metformin 225 mg/kg/d) is given as “even better than metformin”. The IC50 at MNK1 (five concentrations 10000-1 nM) was under 50 nM. In addition, at MNK1, the inhibition at 1 µM was over 75%. Also, on MNK2 (five concentrations 10000-1 nM), the concentration for half-maximal inhibition (IC50) is under 50 nM. In addition, the inhibition at 1 µM at MNK2 was over 75%. Further, the “blood levels of GLP-1” value with male db/db mice (FIG. 6) is “Increased”. Also, in the experiment on male db/db mice (after high dose administration (FIG. 6)), the “serum content of insulin INS” value is listed as “significantly increased”. Besides, in the experiment on male db/db mice (at low doses (FIG. 6)), the “inflammatory cytokine IL-6” value is “significantly decreased”, the “inflammatory cytokine TNF” value was “significantly decreased” and the “plasma BNP” value is given as “significantly decreased”. In addition, the “insulin sensitivity (insulin tolerance test, ITT)” value in the experiment with male db/db mice (db/db mice, gavage 6 weeks, each drug group, especially 12 high-dose group (80 mg/kg/d) (FIG. 4)) is recorded as “significantly improved”. Besides, in the experiment on male db/db mice (setting [4]), the “serum ALT” value is given as “significant decreases”, the “serum AST” value is reported as “significant decreases” and the “serum total bile acid content” value was “significant decreases”.

Turning to `O=C(c1ccc(-c2cn3c(-c4ccc(F)cc4)csc3n2)cc1)N1CCC(N2CCOCC2)CC1` [Compound 52, 6-(4-(4-morpholinepiperidinebasecarbonyl)phenyl)-3-(4-fluorinatedphenyl) imidazole [2,1-b]thiazole compounds], the inhibition at 1 µM at MNK1 and on MNK2 was 25 to 50% in each case.

Turning to `CN(C)C1CCN(C(=O)c2ccc(-c3cn4c(-c5ccc(F)cc5)csc4n3)cc2)CC1` [Compound 53, (4-(dimethylamino)piperidin-1-yl)(4-(3-(4-fluorophenyl)imidazo[2,1-b]thiazol-6-yl)phenyl)methanone], the inhibition at 1 µM at MNK1 and on MNK2 was 25 to 50% each time.

`CN(C)C1CCN(C(=O)c2ccc(-c3cn4c(-c5ccc(C(F)(F)F)cc5)csc4n3)cc2)CC1` [Compound 54, (4-(dimethylamino)piperidin-1-yl)(4-(3-(4-(trifluoromethyl)ph-enyl)imidazo [2,1-b]thiazol-6-yl)phenyl)methanone]: the inhibition at 1 µM at MNK1 and at MNK2 was 25 to 50% each time.

Regarding `CN(C)C1CCN(C(=O)c2ccc(-c3cn4c(-c5ccc(Cl)cc5)csc4n3)cc2)CC1` [Compound 55, (4-(3-(4-chlorophenyl)imidazo[2,1-b]thiazol-6-yl)phenyl)(4-(dimethylamino)piperidin-1-yl)methanone], the inhibition at 1 µM on MNK1 and at MNK2 was 25 to 50% throughout.

As usually defined, the IC50 is the concentration at which inhibition is half-maximal. Low readings indicate inhibition by little substance, high ones a need for much substance.

The values are drawn from US20250042920A1 (OCEAN UNIVERSITY OF CHINA, priority 2021, published 2025).
